According to patent US7528113B2, “Method and composition for the treatment of adenoviral ocular infections” (priority 1999, dated 2009):
Like-named read-outs stand apart in the source and are kept apart here.

Columns and labels:
[1] = system: Ad37 binding to Chang C conjunctival cells; test: microbe, parasite or virus in culture; assay type: cell-based, adenovirus; details: for Interference with the binding of Ad37 to sialic acid expressing cells: 160 mmol concentrations
Description: (§1) Interference of the binding of adenovirus subtype 37 (Ad37) with the first step cellular receptor was studied using dextran sulphate and glycosaminoglycans, such as heparin and heparan sulphates. […] It was thus confirmed that the cellular receptor for Ad37 is (2-3) linked sialic acid.
The effect of glycoproteins to inhibit Ad37 binding to Chang C conjunctival cells was investigated using the following glycoproteins: fetuin, mucin, orosomucoid and glycophorin A. The results are presented in table 2.
The inventors confirmed the inventive concept by determining the inhibition achieved with different carbohydrates, using adenovirus type 37 and Chang C conjunctival cells.
All data are visualised as the dose required for 50% inhibition of adenovirus binding and the maximum inhibition of adenovirus binding.

[2] = system: adenovirus subtype 37 (Ad37); test: Interference of the binding of Ad37 with the first step cellular receptor; assay type: cell-based
Description: as §1

[3] = system: Ad37 virus; test: Binding of 125I-labeled Ad37 to glycosphingolipids; parameters: species or system adenovirus; details: preliminary results, thin layer chromatography, FIG. 3
[4] = system: adenovirus type 19a binding to Chang C conjunctival cells; test: Inhibition of adenovirus type 19a binding to Chang C conjunctival cells; assay type: cell-based
[5] = system: adenovirus type 8 binding to Chang C conjunctival cells; test: Inhibition of adenovirus type 8 binding to Chang C conjunctival cells; assay type: cell-based
[6] = system: Ad37 binding to Chinese hamster ovary cells; test: Ad37 binding to Chinese hamster ovary cells that do not express CAR; assay type: cell-based, adenovirus; details: Chinese hamster ovary cells not expressing CAR; see FIG. 2
Description: as §1

[7] = system: Ad37 binding to human epithelial A549 cells; test: Ad37 binding to A549 cells; assay type: cell-based, adenovirus; details: pre-treatment / pre-incubation of the cells; FIG. 2
Description: Binding to human epithelial A549 cells was investigated. […] This means that Ad8, Ad19a and Ad37, but not types 9 and 19p infect A549 cells by binding to cell surface sialic acid.

[8] = system: adenoviral adhesion; test: Inhibition of adenoviral adhesion by multivalent ligands; assay type: cell-based, adenovirus; details: multivalent ligand
Description: Monovalent analogues of the sialic acid receptor will have to cover most of the twelve fibres at each of the twelve comers of the virus particle to enable efficient blocking of the binding of the virus particle to the host cell receptors. Divalent or multivalent analogues will, by interacting with a few fibres, enable aggregation of numerous virus particles into a lattice. This will hamper or inhibit virus infection with a higher efficiency, i.e. more inhibition per μmole of ligand.

[9] = Chang cells, sialic acid carbohydrates, read-out: Concentration of carbohydrate causing 50% inhibition of Ad37 binding
[10] = read-out: Concentration of carbohydrate causing 50% inhibition of Ad37 binding
[11] = Chang cells, sialylated glycoproteins, read-out: Concentration of glycoprotein causing 50% inhibition of Ad37 binding

N-acetyl-neuraminyllactose
Inhibiting binding of Ad37 to sialic acid-expressing cells (in words) [1]: effective in inhibiting binding | Maximal inhibition of Ad37 binding in % ([1]; 160 mM carbohydrate): 95% | Inhibition of Ad37 binding (in words) ([1]; 160 mM concentration): almost total inhibition | IC50 [1, 9]: 5000 µM

dextran sulphate
Impairment of Ad37 binding by negatively charged molecules [2]: could impair binding of the virus

GalNAcβ4(NeuAcα8NeuAcα3)Galβ4Glcβ1 [NeuAc-GD2]
Ad37 virus binding to the structure [3]: effective for Ad37 virus binding

OC[C@H]1O[C@@H](O[C@H]2[C@H](O)[C@@H](O)C(O)O[C@@H]2CO)[C@H](O)[C@@H](O)[C@H]1O (stereo partly drawn) [lactose, reference compound]
Interference with the binding of Ad37 to sialic acid expressing cells [1]: did not interfere with the binding

GalNAcβ4(NeuAcα3)Galβ4Glcβ1 [NeuAcGM2]
Ad37 virus binding to the structure [3]: effective for Ad37 virus binding

CC(=O)NC1C(O)CC(OC2C(O)C(CO)OC(OC3C(O)C(CO)OC(O)C3NC(C)=O)C2O)(C(=O)O)OC1C(O)C(O)CO [α-NeuAc-(2-3)-β-D-Gal-(1-3)-β-GalNAc]
Ad37 virus binding to the structure [3]: effective for Ad37 virus binding

heparin
Maximal inhibition of binding in % ([4]; 670 μM heparin): 90% | IC50 ([4]; Chang C conjunctival cells, read-out: Concentration of heparin causing 50% inhibition of binding): 25 µM | Impairment of Ad37 binding by negatively charged molecules [2]: could impair binding of the virus | Maximal inhibition of binding in % ([5]; adenovirus type 8, 670 μM heparin): 92% | IC50 ([5]; adenovirus type 8, Chang C conjunctival cells, read-out: Concentration of heparin causing 50% inhibition of binding): 30 µM | Maximal inhibition of binding in % ([1]; adenovirus type 37, 670 μM heparin): 87% | IC50 ([1]; adenovirus type 37, Chang C conjunctival cells, read-out: Concentration of heparin causing 50% inhibition of binding): 20 µM

heparan sulphates
Impairment of Ad37 binding by negatively charged molecules [2]: could impair binding of the virus

CC(=O)N[C@H]1[C@@H](O)[C@H](O)[C@@H](CO)O[C@@H]1O [acetyl mannose amine, reference compound]
Interference with the binding of Ad37 to sialic acid expressing cells [1]: did not interfere with the binding

CC(=O)N[C@@H]1[C@@H](O)[C@@H](O)[C@@H](CO)O[C@@H]1O [acetyl galactose amine, reference compound]
Interference with the binding of Ad37 to sialic acid expressing cells [1]: did not interfere with the binding

CC(=O)N[C@H]1[C@H]([C@H](O)[C@H](O)CO)O[C@@](OC[C@H]2O[C@@H](O[C@H]3[C@H](O)[C@@H](NC(C)=O)C(O)O[C@@H]3CO)[C@H](O)[C@@H](O)[C@H]2O)(C(=O)O)C[C@@H]1O (stereo partly drawn) [α-Neu-5Ac-(2-6)-β-D-Gal-(1-4)-D-GlcNAc]
Inhibiting binding of Ad37 to sialic acid-expressing cells (in words) [1]: effective in inhibiting binding | IC50 [1, 9]: 7000 µM

O=C(CO)N[C@H]1[C@H]([C@H](O)[C@H](O)CO)OC(O)(C(=O)O)C[C@@H]1O (stereo partly drawn) [N-glycolyl-neuraminic acid]
Inhibiting binding of Ad37 to sialic acid-expressing cells (in words) [1]: effective in inhibiting binding | Maximal inhibition of Ad37 binding in % ([1]; 160 mM carbohydrate): 91% | IC50 [1, 10]: 40000 µM

Galβ3GalNAcβ4(NeuAcα8NeuAcα3)Galβ4Glcβ1 [NeuAc-GD1b]
Ad37 virus binding to the structure [3]: effective for Ad37 virus binding

Colominic acid
Inhibiting binding of Ad37 to sialic acid-expressing cells (in words) [1]: effective in inhibiting binding | Maximal inhibition of Ad37 binding in % ([1]; 160 mM carbohydrate): 79%

NeuAcα3Galβ3GalNAcβ4(NeuAcα3)Galβ4Glcβ1 [NeuAc-GD1a]
Ad37 virus binding to the structure [3]: effective for Ad37 virus binding

CC(=O)N[C@H]1[C@H]([C@H](O)[C@H](O)CO)OC(O)(C(=O)O)C[C@@H]1O (stereo partly drawn) [N-acetyl-neuraminic acid]
Inhibiting binding of Ad37 to sialic acid-expressing cells (in words) [1]: effective in inhibiting binding | Maximal inhibition of Ad37 binding in % ([1]; 160 mM carbohydrate): 82% | IC50 [1, 10]: 18000 µM

CC(=O)N[C@@H]1[C@@H](O)[C@H](O)[C@@H](CO)O[C@H]1O [acetyl glucose amine, reference compound]
Interference with the binding of Ad37 to sialic acid expressing cells [1]: did not interfere with the binding

CC(=O)N[C@H]1[C@H]([C@H](O)[C@H](O)CO)O[C@@](O[C@H]2[C@@H](O)[C@@H](CO)O[C@@H](O[C@H]3[C@H](O)[C@@H](NC(C)=O)C(O)O[C@@H]3CO)[C@@H]2O)(C(=O)O)C[C@@H]1O (stereo partly drawn) [α-NeuNAc-(2-3)-β-D-Gal-(1-4)-D-GlcNAc]
Inhibiting binding of Ad37 to sialic acid-expressing cells (in words) [1]: effective in inhibiting binding | IC50 [1, 9]: 5000 µM

CC(=O)N[C@H]1[C@H]([C@H](O)[C@H](O)CO)O[C@@](O[C@H]2[C@@H](O)[C@@H](CO)O[C@@H](O[C@H]3[C@H](O[C@@H]4O[C@@H](C)[C@@H](O)[C@@H](O)[C@@H]4O)[C@@H](O)C(O)O[C@@H]3CO)[C@@H]2O)(C(=O)O)C[C@@H]1O (stereo partly drawn) [N-Acetyl Neuraminyl-3-Fucosyl Lactose, α-Neu-5-Ac-(2-3)-β-D-Gal(1-4)-(α-Fuc-(1-3))-Glc]
Inhibiting binding of Ad37 to sialic acid-expressing cells (in words) [1]: effective in inhibiting binding | IC50 [1, 9]: 5000 µM

Fetuin: sialylated glycoprotein
Maximal inhibition of Ad37 binding in % ([1]; 500 μM glycoprotein): 62% | IC50 [1, 11]: 420 µM

O=C[C@H](O)[C@@H](O)[C@@H](O)[C@H](O)CO [galactose, reference compound]
Interference with the binding of Ad37 to sialic acid expressing cells [1]: did not interfere with the binding

Orosomucoid: sialylated, negatively charged glycoprotein
Maximal inhibition of Ad37 binding in % ([1]; 500 μM glycoprotein): 77% | IC50 [1, 11]: 75 µM

wheat germ agglutinin
Inhibition/blocking of Ad37 binding [6]: blocked the binding | Inhibition of Ad37 binding to A549 cells [7]: is inhibited

Mucin
Maximal inhibition of Ad37 binding in % ([1]; 500 μM glycoprotein): 89% | IC50 [1, 11]: 8 µM | Inhibiting adenoviral adhesion [8]: very effective

B1: Glycophorin A: sialylated glycoprotein (protein, UniProt P02724 20-150, looked up)
Glycophorin-A: LSTTEVAMHTSTSSSVTKSYISSQTNDTHKRDTYAATPRAHEVSEISVRTVYPPEEETGERVQLAHHFSEPEITLIIFGVMAGVIGTILLISYGIRRLIKKSPSDVKPLPSPDTDVPLSSVEIENPETSDQ
Maximal inhibition of Ad37 binding in % ([1]; 500 μM glycoprotein): 45% | IC50 [1, 11]: > 500 µM
